Patent publication US7445765B2, “Radiopharmaceutical for diagnostic imaging containing a technetium-99m nitride heterocomplex” (Nihon Medi-Physics Co., Ltd., priority 2000, dated 2008)

Experiment: Biodistribution of the 99mTc(N) heterocomplexes in rats (organ uptake, heart accumulation, heart/lung and heart/liver ratios)
Format: in vivo, female Sprague-Dawley rats
Settings: rats
Procedure: The biodistribution was measured by using female Sprague-Dawley rats (SD rats) weighing 200 g to 250 g. Each of the ^99mTc(N) heterocomplexes purified in the manner described above was diluted with phosphate buffer (0.1 M, pH=7.4) to obtain a final solution having an ethanol content of 10%. After the SD rats were anesthetized with an intramuscular injection of a mixture of ketamine (80 mg/kg) and xilazine (19 mg/kg), the jugular vein of each rat was surgically exposed and 100 μL (300 to 370 kBq) of the solution containing each ^99mTc(N) heterocomplexes prepared in the manner described above was injected in the jugular vein. The rats (n=3) were sacrificed by cervical dislocation at different times post injection. The blood was withdrawn from the heart through a syringe and counted. It was assumed that the whole blood content was 6.5% of the total body weight. The organs were excised from the rats, washed with physiological saline, weighed, and counted in a NaI well counter.
For comparison, Tables 19 and 20 show the results, obtained in the same manner as above, of measuring the biodistribution of (^99mTc) (MIBI) and (^99mTc) (Tf) which have been used as pharmaceuticals for diagnostic imaging for blood flow in myocardium.
Tables 21 to 23 show data showing the variations with time of heart accumulation, heart/lung ratios and heart/liver ratios for the ^99mTc(N) heterocomplexes of the present invention.

SMILES: [99Tc].[C-]#[N+]CC(C)(C)OC.[C-]#[N+]CC(C)(C)OC.[C-]#[N+]CC(C)(C)OC.[C-]#[N+]CC(C)(C)OC.[C-]#[N+]CC(C)(C)OC.[C-]#[N+]CC(C)(C)OC [(^99mTc) (MIBI), reference compound]
- Biodistribution, Adrenal glands (0 min): 2.80 ± 0.17 % ID/g
- Biodistribution, Blood (0 min): 0.34 ± 0.07 % ID/g
- Biodistribution, Brain (0 min): 0.26 ± 0.01 % ID/g
- Biodistribution, Heart (0 min): 3.56 ± 0.22 % ID/g
- Biodistribution, Intestine (0 min): 3.55 ± 0.37 % ID/g
- Biodistribution, Kidneys (0 min): 9.23 ± 0.62 % ID/g
- Biodistribution, Liver (0 min): 1.36 ± 0.12 % ID/g
- Biodistribution, Lungs (0 min): 1.65 ± 0.08 % ID/g
- Biodistribution, Muscle (0 min): 0.24 ± 0.04 % ID/g
- Biodistribution, Spleen (0 min): 2.65 ± 0.26 % ID/g
- Biodistribution, Submaxillary glands (0 min): 1.43 ± 0.41 % ID/g
- Biodistribution, Adrenal glands (2 min): 1.60 ± 0.01 % ID/g
- Biodistribution, Blood (2 min): 0.11 ± 0.01 % ID/g
- Biodistribution, Brain (2 min): 0.04 ± 0.01 % ID/g
- Biodistribution, Heart (2 min): 3.25 ± 0.17 % ID/g
- Biodistribution, Intestine (2 min): 3.71 ± 0.01 % ID/g
- Biodistribution, Kidneys (2 min): 10.12 ± 0.15 % ID/g
- Biodistribution, Liver (2 min): 1.88 ± 0.08 % ID/g
- Biodistribution, Lungs (2 min): 1.18 ± 0.13 % ID/g
- Biodistribution, Muscle (2 min): 0.14 ± 0.00 % ID/g
- Biodistribution, Spleen (2 min): 2.76 ± 0.66 % ID/g
- Biodistribution, Submaxillary glands (2 min): 1.01 ± 0.23 % ID/g
- Biodistribution, Adrenal glands (10 min): 3.28 ± 0.39 % ID/g
- Biodistribution, Blood (10 min): 0.07 ± 0.01 % ID/g
- Biodistribution, Brain (10 min): 0.05 ± 0.01 % ID/g
- Biodistribution, Heart (10 min): 3.37 ± 0.45 % ID/g
- Biodistribution, Intestine (10 min): 5.40 ± 0.33 % ID/g
- Biodistribution, Kidneys (10 min): 11.45 ± 1.62 % ID/g
- Biodistribution, Liver (10 min): 2.21 ± 0.27 % ID/g
- Biodistribution, Lungs (10 min): 1.36 ± 0.31 % ID/g
- Biodistribution, Muscle (10 min): 0.18 ± 0.01 % ID/g
- Biodistribution, Spleen (10 min): 3.16 ± 0.62 % ID/g
- Biodistribution, Submaxillary glands (10 min): 1.12 ± 0.12 % ID/g
- Biodistribution, Adrenal glands (20 min): 3.05 ± 0.04 % ID/g
- Biodistribution, Blood (20 min): 0.05 ± 0.01 % ID/g
- Biodistribution, Brain (20 min): 0.04 ± 0.01 % ID/g
- Biodistribution, Heart (20 min): 3.16 ± 0.22 % ID/g
- Biodistribution, Intestine (20 min): 4.90 ± 0.23 % ID/g
- Biodistribution, Kidneys (20 min): 8.14 ± 1.30 % ID/g
- Biodistribution, Liver (20 min): 1.98 ± 0.60 % ID/g
- Biodistribution, Lungs (20 min): 0.99 ± 0.11 % ID/g
- Biodistribution, Muscle (20 min): 0.15 ± 0.05 % ID/g
- Biodistribution, Spleen (20 min): 2.11 ± 0.18 % ID/g
- Biodistribution, Submaxillary glands (20 min): 1.07 ± 0.04 % ID/g
- Biodistribution, Adrenal glands (30 min): 3.49 ± 0.67 % ID/g
- Biodistribution, Blood (30 min): 0.05 ± 0.01 % ID/g
- Biodistribution, Brain (30 min): 0.04 ± 0.02 % ID/g
- Biodistribution, Heart (30 min): 3.70 ± 0.04 % ID/g
- Biodistribution, Intestine (30 min): 5.42 ± 0.05 % ID/g
- Biodistribution, Kidneys (30 min): 6.46 ± 0.11 % ID/g
- Biodistribution, Liver (30 min): 1.37 ± 0.22 % ID/g
- Biodistribution, Lungs (30 min): 0.72 ± 0.01 % ID/g
- Biodistribution, Muscle (30 min): 0.17 ± 0.05 % ID/g
- Biodistribution, Spleen (30 min): 2.89 ± 0.29 % ID/g
- Biodistribution, Submaxillary glands (30 min): 1.08 ± 0.09 % ID/g
- Biodistribution, Adrenal glands (60 min): 3.50 ± 0.60 % ID/g
- Biodistribution, Blood (60 min): 0.03 ± 0.00 % ID/g
- Biodistribution, Brain (60 min): 0.04 ± 0.00 % ID/g
- Biodistribution, Heart (60 min): 3.18 ± 0.17 % ID/g
- Biodistribution, Intestine (60 min): 6.49 ± 1.43 % ID/g
- Biodistribution, Kidneys (60 min): 4.42 ± 0.11 % ID/g
- Biodistribution, Liver (60 min): 1.57 ± 0.11 % ID/g
- Biodistribution, Lungs (60 min): 0.47 ± 0.24 % ID/g
- Biodistribution, Muscle (60 min): 0.18 ± 0.01 % ID/g
- Biodistribution, Spleen (60 min): 1.88 ± 0.15 % ID/g
- Biodistribution, Submaxillary glands (60 min): 1.17 ± 0.05 % ID/g
- Biodistribution, Adrenal glands (120 min): 2.43 ± 0.13 % ID/g
- Biodistribution, Blood (120 min): 0.02 ± 0.00 % ID/g
- Biodistribution, Brain (120 min): 0.03 ± 0.00 % ID/g
- Biodistribution, Heart (120 min): 3.04 ± 0.14 % ID/g
- Biodistribution, Intestine (120 min): 4.15 ± 1.02 % ID/g
- Biodistribution, Kidneys (120 min): 3.49 ± 0.05 % ID/g
- Biodistribution, Liver (120 min): 1.02 ± 0.23 % ID/g
- Biodistribution, Lungs (120 min): 0.47 ± 0.06 % ID/g
- Biodistribution, Muscle (120 min): 0.28 ± 0.05 % ID/g
- Biodistribution, Spleen (120 min): 1.23 ± 0.18 % ID/g
- Biodistribution, Submaxillary glands (120 min): 1.19 ± 0.05 % ID/g

SMILES: CCOCCC[P]1(CCCOCC)CCN(CCOCC)CC[P](CCCOCC)(CCCOCC)[99Tc+]12(#[N])[S]C(N(CCOCC)CCOCC)=[S]2 [[^99m−Tc(N) (PNP6) (DBODC)^+]]
- Heart accumulation (0 min): 2.26 ± 0.82 % ID/g
- Heart accumulation (2 min): 1.24 ± 0.14 % ID/g
- Heart accumulation (10 min): 1.39 ± 0.30 % ID/g
- Heart accumulation (20 min): 1.18 ± 0.18 % ID/g
- Heart accumulation (30 min): 1.05 ± 0.19 % ID/g
- Heart accumulation (60 min): 1.10 ± 0.11 % ID/g
- Heart accumulation (120 min): 1.29 ± 0.16 % ID/g

SMILES: CCOCCN1CC[P](CCCOC)(CCCOC)[99Tc+]2(#[N])([S]C(N(CCOCC)CCOCC)=[S]2)[P](CCCOC)(CCCOC)CC1 [[^99m−Tc(N) (PNP5) (DBODC)^+]]
- Heart accumulation (0 min): 5.01 ± 0.16 % ID/g
- Heart accumulation (2 min): 3.94 ± 0.32 % ID/g
- Heart accumulation (10 min): 3.69 ± 0.29 % ID/g
- Heart accumulation (20 min): 3.63 ± 0.46 % ID/g
- Heart accumulation (30 min): 3.73 ± 0.48 % ID/g
- Heart accumulation (60 min): 3.76 ± 0.39 % ID/g
- Heart accumulation (120 min): 3.31 ± 0.06 % ID/g

SMILES: CCOCCN(CCOCC)C1=[S][99Tc+]2(#[N])([S]1)[P](CCCOC)(CCCOC)CCN(CCOC)CC[P]2(CCCOC)CCCOC [[^99m−Tc(N) (PNP3) (DBODC)^+]]
- Heart accumulation (0 min): 3.57 ± 0.14 % ID/g
- Heart/liver ratio in biodistribution (0 min): 2.45
- Heart/lung ratio in biodistribution (0 min): 2.32
- Heart accumulation (2 min): 3.42 ± 0.19 % ID/g
- Heart/liver ratio in biodistribution (2 min): 1.99
- Heart/lung ratio in biodistribution (2 min): 3.39
- Heart accumulation (10 min): 3.65 ± 0.56 % ID/g
- Heart/liver ratio in biodistribution (10 min): 2.55
- Heart/lung ratio in biodistribution (10 min): 4.74
- Heart accumulation (20 min): 3.32 ± 0.18 % ID/g
- Heart/liver ratio in biodistribution (20 min): 3.82
- Heart/lung ratio in biodistribution (20 min): 3.95
- Heart accumulation (30 min): 3.27 ± 0.36 % ID/g
- Heart/liver ratio in biodistribution (30 min): 7.79
- Heart/lung ratio in biodistribution (30 min): 4.74
- Heart accumulation (60 min): 3.27 ± 0.62 % ID/g
- Heart/liver ratio in biodistribution (60 min): 20.44
- Heart/lung ratio in biodistribution (60 min): 9.60
- Heart accumulation (120 min): 3.00 ± 0.42 % ID/g
- Heart/liver ratio in biodistribution (120 min): 25.01
- Heart/lung ratio in biodistribution (120 min): 11.10
